According to US20230293475A1, “METHODS OF PROVIDING SO[…] TO SUBJECTS WITH IMPAIRED RENAL FUNCTION” (Axsome Malta Ltd., priority 2020, published 2023):
Read-outs that look alike come from different tables or passages of the source.

Experiment: Phase 1 single-dose study, plasma PK of solriamfetol by level of renal function
Format: in vivo, human
Settings: for AUCt, percent ratio (90% confidence interval) of geometric mean relative to Group 1 / AUC∞, percent ratio (90% confidence interval) of geometric mean relative to Group 1 / Cmax, percent ratio (90% confidence interval) of geometric mean relative to Group 1 / AUC(0-t) / AUC(0-inf) / Cmax / Vd/F / Tmax / half-life: single 75-mg dose; for AUC(0-t) / AUC(0-inf) / Cmax / Vd/F / Tmax / half-life: both sexes, human, plasma, oral, 75 mg; for Vd/F: read-out: Vd/F, mean ± SD (%CV); for Tmax: read-out: tmax, median (min, max); for half-life: read-out: t½, mean ± SD (%CV) (converted)
Experimental: In healthy subjects with normal renal function, solriamfetol HCl is renally excreted ~90% unchanged within 48 hours of administration. Thus, renal impairment, as well as hemodialysis in individuals with end-stage renal disease (ESRD), could affect the PK of solriamfetol HCl. To ascertain the precise impact of renal impairment and hemodialysis on pharmacokinetics and safety of solriamfetol RCl, a Phase 1, parallel-group, open-label, single-dose study was conducted at 2 U.S. sites. The protocol was approved by the IntegReview Institutional Review Board (Austin, Texas), and the study was conducted in compliance with the protocol, the Guideline for Good Clinical Practice E6; the US Code of Federal Regulations pertaining to conduct and reporting of clinical studies; the Clinical Trials Directive of the European Medicines Agency (Directive 2001/20/EC); and the Declaration of Helsinki. Written informed consent was obtained from each subject before enrollment in the study and before performance of any study-related procedure. See, also, Zomorodi K, Chen D, Lee L, Lasseter K, Marbury T. An Open-Label, Single-Dose, Phase 1 Study of the Pharmacokinetics and Safety of JZP-110 in Subjects With Normal or Impaired Renal Function and With End-Stage Renal Disease Requiring Hemodialysis [abstract]. Sleep. 2017;40 (suppl):A382-383.
Eligible participants were men and non-pregnant, non-lactating women between the ages of 18 and 80 years, with a body mass index (BMI) ≤ 35 kg/m^2. Women of childbearing potential were required to have used a medically accepted method of birth control for at least 2 months prior to the first dose of study drug, with continued use throughout the study period and for 30 days after study completion.
Eligible participants were assigned to 1 of 5 groups according to renal disease status as measured by the estimated glomerular filtration rate (eGFR) on the day prior to dosing, calculated using the Modification in Diet in Renal Disease equation. Group 1 consisted of healthy participants with normal renal function (eGFR ≥ 90 mL/min/1.73 m^2) and served as the control group. Groups 2, 3, and 4 had mild, moderate, and severe renal impairment based on eGFRs of 60-89, 30-59, and < 30 mL/min/1.73 m^2, respectively. Group 5 consisted of participants with ESRD who required ≥ 3 hemodialysis treatments per week for the preceding 3 months. […] Group 1 was enrolled last to facilitate matching the mean age, BMI, and sex distribution of Groups 2-5.
Groups 1-4 received one dose of solriamfetol HCl (89.3 mg; equivalent to 75-mg solriamfetol) on day 1; Group 5 received one dose equivalent to 75-mg dose on day 1 followed by 4-hour hemodialysis (designated Group 5.2), and one dose equivalent to 75-mg solriamfetol on day 8 without hemodialysis (designated Group 5.1). All doses were administered on an empty stomach following an overnight fast except for participants in Group 5, who received a standardized snack on day 7 and breakfast early on day 8 before starting an 8-hour fast. Participants remained fasting for 4 hours after administration, with water allowed except for 1 hour before and after dosing.
Serial blood samples of approximately 4 mL were collected within 30 minutes prior to dosing and at 0.5, 1, 1.5, 2, 2.5, 3, 4, 6, 8, 10, 12, 24, 36, and 48 hours post-dose in Groups 1-3, with continued sampling at 60 and 72 hours post-dose in Groups 4 and 5. All blood samples were collected into labeled K2EDTA tubes by direct venipuncture or indwelling catheter and kept on ice until the samples were centrifuged within 30 minutes of collection at approximately 2500 rpm (1315 × g) at 4° C. for 10 minutes. The plasma was transferred into polypropylene tubes for freezing and storage at -70° C. until analysis.
Bioanalytical analyses were performed by a central laboratory (KCAS, LLC, Shawnee, Kansas) using validated proprietary methods that included extraction/derivatization and liquid chromatography-tandem mass spectrometry (LC-MS/MS). […]

[1] = Group 3 moderate renal impairment
[2] = Group 4 severe renal impairment
[3] = Group 5.1 ESRD without hemodialysis
[4] = Group 5.2 ESRD with hemodialysis
[5] = Group 5.1 ESRD without hemodialysis, n=3
[6] = Group 5.2 ESRD with hemodialysis, n=6

Structure (SMILES): NC(=O)OC[C@H](N)Cc1ccccc1 [solriamfetol, [R]-2-amino-3-phenylpropylcarbamate]
- Cmax, lower relative to normal renal function (ESRD requiring hemodialysis): ≤ 19%
- overall exposure, fold increase relative to normal renal function (ESRD requiring hemodialysis): ≥ 4 fold
- t½, fold longer relative to normal renal function (ESRD requiring hemodialysis): ≥ 13 fold
- Cmax, higher versus Group 1 (Group 2 mild renal impairment): approximately 6%
- total exposure (AUC∞), higher relative to Group 1 (Group 2 mild renal impairment): 53%
- AUCt, percent ratio (90% confidence interval) of geometric mean relative to Group 1 (Group 2 mild renal impairment): 158.3 (97.5, 256.9) %
- AUC∞, percent ratio (90% confidence interval) of geometric mean relative to Group 1 (Group 2 mild renal impairment): 152.9 (92.9, 251.7) %
- Cmax, percent ratio (90% confidence interval) of geometric mean relative to Group 1 (Group 2 mild renal impairment): 105.9 (80.6, 139.0) %
- Cmax, higher versus Group 1 [1]: ~4%
- total exposure (AUC∞), higher relative to Group 1 [1]: 129%
- AUCt, percent ratio (90% confidence interval) of geometric mean relative to Group 1 [1]: 219.2 (133.7, 359.6) %
- AUC∞, percent ratio (90% confidence interval) of geometric mean relative to Group 1 [1]: 229.2 (135.6, 387.4) %
- Cmax, percent ratio (90% confidence interval) of geometric mean relative to Group 1 [1]: 104.3 (78.4, 138.9) %
- Cmax, higher versus Group 1 [2]: ~11%
- total exposure (AUC∞), higher relative to Group 1 [2]: 339%
- AUCt, percent ratio (90% confidence interval) of geometric mean relative to Group 1 [2]: 380.4 (208.4, 694.4) %
- AUC∞, percent ratio (90% confidence interval) of geometric mean relative to Group 1 [2]: 438.6 (217.3, 885.3) %
- Cmax, percent ratio (90% confidence interval) of geometric mean relative to Group 1 [2]: 110.5 (81.1, 150.6) %
- overall exposure (AUCt), fold higher relative to Group 1 (Group 5.1 ESRD without dialysis on day 8): approximately 5 fold
- Cmax, lower versus Group 1 [3]: approximately 3%
- exposure, higher versus Group 1 [3]: approximately 518%
- AUCt, percent ratio (90% confidence interval) of geometric mean relative to Group 1 [3]: 617.8 (385.3, 990.8) %
- AUC∞, percent ratio (90% confidence interval) of geometric mean relative to Group 1 [3]: 1290.6 (542.78, 3068.5) %
- Cmax, percent ratio (90% confidence interval) of geometric mean relative to Group 1 [3]: 97.2 (76.1, 124.1) %
- overall exposure (AUCt), fold higher relative to Group 1 (Group 5.2 ESRD with dialysis on day 1): about 4 fold
- Cmax, lower versus Group 1 [4]: ~19%
- exposure, higher versus Group 1 [4]: ~357%
- AUCt, percent ratio (90% confidence interval) of geometric mean relative to Group 1 [4]: 457.2 (296.6, 704.9) %
- AUC∞, percent ratio (90% confidence interval) of geometric mean relative to Group 1 [4]: 1496.5 (748.7, 2991.2) %
- Cmax, percent ratio (90% confidence interval) of geometric mean relative to Group 1 [4]: 80.9 (63.4,103.1) %
- AUC(0-t) (Group 1 normal renal function, over 48 h, read-out: AUCt, mean ± SD (%CV)): 4850 ± 3450 ng·h/mL
- AUC(0-t) (Group 1 normal renal function, over 48 hours, read-out: AUCt, geometric LS mean (converted)): 4090 ng·h/mL
- AUC(0-inf) (Group 1 normal renal function, read-out: AUC∞, geometric LS mean): 4360 ng·h/mL
- AUC(0-inf) (Group 1 normal renal function, read-out: AUC∞, mean ± SD (%CV)): 5270 ± 4100 ng·h/mL
- Cmax (Group 1 normal renal function, read-out: Cmax, geometric LS mean): 482 ng/mL
- Cmax (Group 1 normal renal function, read-out: Cmax, mean ± SD (%CV)): 499 ng/mL
- Vd/F (Group 1 normal renal function): 164 L
- Tmax (Group 1 normal renal function): 1.3 h
- half-life (Group 1 normal renal function): 7.6 ± 5.1 h
- AUC(0-t) (Group 2 mild renal impairment, over 48 h, read-out: AUCt, mean ± SD (%CV)): 6610 ng·h/mL
- AUC(0-t) (Group 2 mild renal impairment, over 48 hours, read-out: AUCt, geometric LS mean (converted)): 6470 ng·h/mL
- AUC(0-inf) (Group 2 mild renal impairment, read-out: AUC∞, geometric LS mean): 6670 ng·h/mL
- AUC(0-inf) (Group 2 mild renal impairment, read-out: AUC∞, mean ± SD (%CV)): 6840 ng·h/mL
- Cmax (Group 2 mild renal impairment, read-out: Cmax, geometric LS mean): 510 ng/mL
- Cmax (Group 2 mild renal impairment, read-out: Cmax, mean ± SD (%CV)): 522 ng/mL
- Vd/F (Group 2 mild renal impairment): 147 L
- Tmax (Group 2 mild renal impairment): 1.5 h
- half-life (Group 2 mild renal impairment): 9.1 ± 1.6 h
- AUC(0-t) (Group 3 moderate renal impairment, over 48 h, read-out: AUCt, mean ± SD (%CV)): 9230 ng·h/mL
- AUC(0-t) (Group 3 moderate renal impairment, over 48 hours, read-out: AUCt, geometric LS mean (converted)): 8960 ng·h/mL
- AUC(0-inf) (Group 3 moderate renal impairment, read-out: AUC∞, geometric LS mean): 10000 ng·h/mL
- AUC(0-inf) (Group 3 moderate renal impairment, read-out: AUC∞, mean ± SD (%CV)): 10500 ng·h/mL
- Cmax (Group 3 moderate renal impairment, read-out: Cmax, geometric LS mean): 503 ng/mL
- Cmax (Group 3 moderate renal impairment, read-out: Cmax, mean ± SD (%CV)): 517 ng/mL
- Vd/F [1]: 152 L
- Tmax [1]: 1.5 h
- half-life [1]: 14.3 ± 4.5 h
- AUC(0-t) (Group 4 severe renal impairment, over 72 hours, read-out: AUCt, geometric LS mean (converted)): 15500 ng·h/mL
- AUC(0-inf) (Group 4 severe renal impairment, read-out: AUC∞, geometric LS mean): 19100 ng·h/mL
- AUC(0-inf) (Group 4 severe renal impairment, read-out: AUC∞, mean ± SD (%CV)): 23600 ng·h/mL
- Cmax (Group 4 severe renal impairment, read-out: Cmax, geometric LS mean): 533 ng/mL
- Cmax (Group 4 severe renal impairment, read-out: Cmax, mean ± SD (%CV)): 553 ng/mL
- Vd/F [2]: 157 L
- Tmax [2]: 2 h
- half-life [2]: 29.6 ± 14.4 h
- AUC(0-inf) (Group 5.1 ESRD without hemodialysis, n=3, read-out: AUC∞, geometric LS mean): 56300 ng·h/mL
- Vd/F [5]: 154 L
- half-life [5]: 100 h
- AUC(0-t) (Group 5.1 ESRD without hemodialysis, over 72 hours, read-out: AUCt, geometric LS mean (converted)): 25300 ng·h/mL
- Cmax (Group 5.1 ESRD without hemodialysis, read-out: Cmax, geometric LS mean): 469 ng/mL
- Cmax (Group 5.1 ESRD without hemodialysis, read-out: Cmax, mean ± SD (%CV)): 474 ng/mL
- Tmax [3]: 3.3 h
- AUC(0-inf) (Group 5.2 ESRD with hemodialysis, n=6, read-out: AUC∞, geometric LS mean): 65300 ng·h/mL
- Vd/F [6]: 231 L
- half-life [6]: 165 h
- AUC(0-t) (Group 5.2 ESRD with hemodialysis, over 72 hours, read-out: AUCt, geometric LS mean (converted)): 18700 ng·h/mL
- Cmax (Group 5.2 ESRD with hemodialysis, read-out: Cmax, geometric LS mean): 390 ng/mL
- Cmax (Group 5.2 ESRD with hemodialysis, read-out: Cmax, mean ± SD (%CV)): 396 ng/mL
- Tmax [4]: 1.5 h
- AUC0-inf, fold compared with normal renal function (mild renal impairment): ~1.53 fold
- t½, fold increase compared with normal renal function (mild renal impairment): approximately 1.2 fold
- AUC0-inf, fold compared with normal renal function (moderate renal impairment): ~2.29 fold
- t½, fold increase compared with normal renal function (moderate renal impairment): ~1.9 fold
- AUC0-inf, fold compared with normal renal function (severe renal impairment): ~4.39 fold
- t½, fold increase compared with normal renal function (severe renal impairment): ~3.9 fold
